Columns and labels:
[1] = system: N-Ras mutant melanoma tumor cells (MaNRAS1); experiment: Growth of N-Ras mutant melanoma tumors with prebiotics with or without MEKi; assay type: in vivo, C57BL/6 mice
Experimental: FIG. 7A C57BL/6 mice were injected (s.c.) with NRAS^Q61K mouse melanoma cells (1×10^6) (n=10). The mice were administered with either a control diet alone, or one supplemented with mucin (3%) in drinking water or inulin (15%) in chow starting 14 days prior to tumor inoculation. When tumors reached a volume of 10-20 mm^2, mice were treated with MEKi (PD325901) administered by gavage (10 mg/kg, daily), alone or in combination with inulin or mucin, as indicated. Tumor volume was assessed every 4 days. […] Data are representative of two independent experiments. Graphs show the mean±s.e.m. *P<0.05, **P<0.005, ***P<0.001, ****P<0.0001 by two-way ANOVA with Tukey's correction (A) or one-way ANOVA with Tukey's correction (B-D).
Animals and tumor models. […] Male 6-8-week-old mice were used for all experiments. […] All mice were fed an autoclaved chow diet ad libitum (LabDiet 5K67, Purina Foods). […] Mouse selection for experiments was not formally randomized or blinded. For tumor growth experiments, mice were injected subcutaneously (s.c.) with 1×10^6 tumor cells. Tumor size was measured twice a week for calculation of tumor volume. Tumors were weighed at the time of excision.
Mucin and inulin treatment. For mucin treatment, C57BL/6 mice were subjected to control or water supplemented with 3% mucin (Lee Biosolutions) prior to (14 days) and during tumor inoculation. Water was changed every other day. For inulin treatment, mice were received a diet (TD. 94048, AIN-93M, Purified Diet, ENVIGO) enriched with long-chain inulin by substituting all of sucrose and 5% of corn starch in the control diet or a modified diet (TD. 160256, Modified AIN-93M, Diet w 15% inulin, ENVIGO) prior to (14 days) and during tumor inoculation. Diets were changed 2 times a week.
Experiments were conducted to determine whether prebiotics impacted the effectiveness of MEK inhibitor (MEKi) treatment on tumor growth control and treatment resistance.

Bacteroides spp. = experiment: Anaerobic fecal cultures with 1% prebiotic, 16S rDNA quantification; assay type: cell-based; conditions: fecal cultures of 12 healthy human subjects, 3-4 days at 37° C.
Experimental: (§1) Fecal samples derived from 12 healthy human subjects were cultivated in the presence or absence of 1% prebiotic. 16S rDNA sequences corresponding to Bifidobacterium, Bacteroides and Akkermansia muciniphila were quantified. Data are representative of three independent experiments. Graphs show the mean±s.e.m. *P<0.05, **P<0.005, ***P<0.001, ****P<0.0001 by one-way ANOVA with Tukey's correction.
(§2) Anaerobic fecal cultures. […] Anaerobic cultures (9% H2, 81% N2) were grown statically for 3-4 days at 37° C. and grown to approximate saturation.
(§3) Chemically-defined medium (CDM). CDM contains 50 mM HEPES, 2.2 mM KH2PO4, 10 mM Na2HPO4, 60 mM NaHCO3, 4 mM of each amino acid, except leucine (15 mM), 10 mL ATCC, Trace Mineral Supplement. CDM contained nucleoside bases (100 mg/L), inosine, xanthine, adenine, guanine, cytosine, thymidine and uracil (400 mg/L). CDM contained choline (100 mg/L), ascorbic acid (500 mg/L), lipoic acid (2 mg/L), hemin (1.2 mg/L) and myo-inositol (400 mg/L). Resazurin (1 mg/L) was added to visually monitor dissolved oxygen. The pH of the media was adjusted to 7.4.
(§4) Fecal samples derived from 12 healthy, vegetarian human subjects were cultivated in a chemically-defined medium the presence or absence of 1% prebiotic. Anaerobic cultures (9% H2, 81% N2) were grown statically for 3-4 days at 37° C. and grown to approximate saturation.

Bifidobacterium spp. = experiment: as above; assay type: cell-based, human; conditions: in two of these cultures
Experimental: as §1, §2, §3, §4

Yumm1.5 tumors [2] = experiment: Growth of Yumm1.5 melanoma tumors in prebiotic-fed mice; assay type: in vivo, C57BL/6 mice; conditions: mucin 3% in drinking water or inulin 15% w/w chow from 2 weeks prior to inoculation of 1×10^6 Yumm1.5 cells
Description: (§5) FIG. 2B, Quantification of tumor-infiltrating effector (CD44hi) CD4+, CD8+ and CD45+ T cells from mice treated as in FIG. 2A (n=10). FIG. 2C, Quantification of tumor-infiltrating, IFN-g-producing CD4+ T cells from mice treated as in FIG. 2A (n=10). FIG. 2D, Quantification of tumor-infiltrating total DCs and subsets in mice treated as in FIG. 2A (n=10). FIG. 2E, MFI of MHC class I and MHC class II on DCs from the tumors of mice treated as in FIG. 2A (n=10). […] Graphs show the mean s.e.m. *P<0.05, **P<0.005, ***P<0.001,****P<0.0001 by two-way ANOVA with Tukey's correction (A) and by one-way ANOVA with Tukey's correction (B-E).

Yumm1.5 tumors [3] = experiment: Flow cytometry of tumor-infiltrating immune cells in Yumm1.5 tumors; assay type: in vivo, C57BL/6 mice; conditions: 20 days following tumor inoculation
Description: as §5
(§6) Tumor digestion. Tumors were excised, minced, and digested with 1 mg/ml collagenase D (Roche) and 100 μg/ml DNase I (Sigma) at 37° C. for 1 h. Digests were then passed through a 70-μm cell strainer to generate a single-cell suspension. The cells were washed twice with PBS containing 2 mM EDTA, and then stained for flow cytometry.
(§7) Flow cytometry. Tumor-derived single-cell suspensions were washed twice with FACS staining buffer, fixed for 15 min with 1% formaldehyde in PBS, washed twice, and resuspended in FACS staining buffer. For intracellular cytokine staining, cells were resuspended in complete RPMI-1640 (containing 10 mM HEPES, 1% non-essential amino acids and L-glutamine, 1 mM sodium pyruvate, 10% heat-inactivated fetal bovine serum (FBS), and antibiotics) supplemented with 50 U/mL IL-2 (NCI), […] brefeldin A (BFA, Sigma), and incubated with phorbol myristate acetate (10 ng/ml) and ionomycin (0.5 μg/ml) at 37° C. The cells were then fixed and permeabilized using a Cytofix/Cytoperm Kit (BD Biosciences) before staining. Antibodies to the following proteins were used: CD45.2 (104), CD8a (53-6.7), CD4 (GK1.5), CD44 (IM7), TNF-α (MP6-XT22), IFN-γ (XMG1.2), CD11c (N418), CD11b (M1/70), MHC class II (M5/114.15.2), PDCA (129c1), and B220 (RA3-6B2) from BioLegend, and antibodies to IL-2 (JES6-5H4) and MHC class I (AF6-88.5.5.3) from eBioscience. All data were collected on an LSRFortessa (BD Biosciences) and analyzed using FlowJo Software (Tree Star).

gut microbiota = assay type: in vivo, C57BL/6 mice
Experimental: Bacterial DNA extraction and 16S library preparation. […] Mouse fecal pellets were frozen on dry ice, and stored at −80° C. Bacterial DNA was extracted using the QIAmp Fast DNA Stool Mini Kit (Qiagen). To ensure efficient cell lysis, a 5-min bead-beating step using a Mini-Beadbeater-16 was included (Biospec Products, OK, USA). Library preparation for the Illumina MiSeq platform was performed by amplification of the V3-V4 region of the bacterial 16S ribosomal DNA gene using
C. Adapter and barcode sequences for dual indices were used as described by Illumina. PCR clean up steps were performed with QIAquick 96-PCR Clean up kit (Qiagen, Germany), and library quantification was performed using a KAPA Library Quantification Kit for Illumina platforms (KAPA Biosystems, MA, USA). An Experion Automated Gel Electrophoresis System (Bio-Rad, CA, USA) was used to measure the DNA concentration and purity of the pooled libraries. The 16S libraries were sequenced at Novagene (Beijing, China) and the SBP sequencing Core.
16S sequencing data processing. The original FASTQ files from Illumina 250 basepair paired-end sequencing of the samples were processed using a novel 16S amplicon sequencing pipeline HiMap (http://github.com/taolonglab/himap; BioRxiv 565572). The output of HiMap is Operational Strain Unit (OSU) which contains one or more bacterial strains that best match the 16S sequence and cannot be further distinguished. The percentage similarity between the 16S sequence and the aligned region of 16S rRNA genes of the strains in the OSU is indicated. OSUs mapped to the same strains are grouped together (adding read counts) if percentage similarities are within 3%. Read counts are converted into relative abundance as described in HiMap. Log 10-transformed relative abundances were used for comparisons between samples under different experimental conditions.

[4] = system: MC-38 mouse colorectal cancer cells; experiment: Growth of MC-38 colorectal cancer tumors in prebiotic-fed mice; assay type: in vivo, C57BL/6 mice; conditions: 3% mucin in drinking water or 15% inulin diet from two weeks prior to inoculation
Description: (§8) MC-38 mouse colorectal cancer cells (1×10^6) were inoculated, and diets were continued after inoculation.

[5] = system: MC-38 mouse colorectal cancer cells; experiment: Flow cytometry of tumor-infiltrating immune cells in MC-38 tumors; assay type: in vivo, C57BL/6 mice
Experimental: as §6, §7, §8

CD8+ T cells = experiment: qRT-PCR of cytokine and chemokine mRNAs in CD8+ T cells in vitro; assay type: cell-based, mice; conditions: 0.05 or 0.5 mg/ml in vitro
Description: Data are representative of two independent experiments. Graphs show the mean±s.e.m. *P<0.05, **P<0.005, ***P<0.001, ****P<0.0001 one-way ANOVA with Tukey's correction.
RNA extraction and qRT-PCR analyses. Total RNA was extracted from tumor samples individually using the RNeasy Fibrous Tissue Midi kit (QIAGEN) or cells treated as indicated using High Capacity Reverse Transcriptase kits (Invitrogen) according to the manufacturer's protocol. Purity and concentration of extracted RNA were checked and quantified by reading at 260 and 280 nm in a NanoDrop spectrophotometer (Thermo Fisher). The qRT-PCR analyses were performed using Syber Green RT-PCR kits (Invitrogen) on a Bio-Rad CFX Connect Real-Time system. Expression levels normalized to 18S or Tubb5 controls.

[6] = system: intestinal epithelial cells; experiment: qRT-PCR of inflammatory mediators in intestinal epithelial cells in vivo; set-up: species or system C57BL/6 mice; conditions: inulin 15% in chow, naïve mice, 2 weeks
Description: FIG. 15 illustrates effects of mucin and inulin on expression of inflammatory mediators by intestinal epithelial cells in vivo. qRT-PCR data are shown for mRNA levels of the indicated inflammatory mediators in intestinal epithelial cells from mucin or inulin-treated mice (n=4). Data are representative of two independent experiments. Graphs show the mean s.e.m. *P<0.05, **P<0.005, one-way ANOVA with Tukey's correction.
Isolation of intestinal epithelial cells. A 10 cm section of mouse small intestine was opened longitudinally, minced, washed in 150 mM NaCl containing 1 mM DTT, and then resuspended in dissociation buffer (130 mM NaCl, 10 mM EDTA, 10 mM Hepes [pH 7.4], 10% FCS, and 1 mM DTT). The sections were incubated at 37° C. for 30 min with vigorous shaking to release the epithelial cells from the lamina propria. The epithelial cell suspension was then carefully aspirated, centrifuged, and washed in ice-cold PBS.
The effect of mucin and inulin on intestinal epithelial cells was evaluated in vivo. To this end, mucin (3% in drinking water) or inulin (15% in chow) were administered to naïve C57BL/6 mice for 2 weeks. Intestinal epithelial cells were isolated from small intestine and were assessed for the level of select cytokines and chemokines that are implicated in the activation of the immune response and anti-tumor immunity.

Molecule: O=C(NOC[C@H](O)CO)c1ccc(F)c(F)c1Nc1ccc(I)cc1F [MEKi, PD325901, reference compound]
- N-Ras mutant tumor growth ([1]; MEKi (PD325901) 10 mg/kg daily by gavage, alone or with prebiotic): effectively controlled tumor growth

Molecule: inulin
- relative abundance of Bacteroides spp. (Bacteroides spp.): increased
- Bifidobacterium spp. (Bifidobacterium spp.): strong increase
- melanoma tumor growth (Yumm1.5 tumors [2]): attenuated
- MHC class I and MHC class II on tumor-resident DCs (Yumm1.5 tumors [3]): higher levels
- dendritic cell subsets including pDCs and CD8a+ conventional DCs in tumors (Yumm1.5 tumors [3]): increased
- effector (CD44hi) CD4+ and CD8+ T cells, and CD45+ cells in tumors (Yumm1.5 tumors [3]; compared to control mice): enrichment
- control of N-Ras mutant tumors ([1]; in the absence of MEKi, mucin 3% in water or inulin 15% in chow): modestly controlled
- intrinsic resistance of MaN-Ras melanoma cells to MEKi ([1]; inulin-fed mice treated with MEKi): delayed
- phylotype group related to Parasutterella excrementihominis (gut microbiota; in the absence of MEKi): notable increase
- taxa increased in relative abundance (gut microbiota; in the absence of MEKi): primarily increased the relative abundance of taxa mapped in or near Clostridium cluster XIVa
- Akkermansia muciniphila (gut microbiota; inulin+MEKi treated mice compared to inulin alone): robustly enriched
- growth of colon cancer MC-38 tumors [4]: attenuated
- CD4+ or CD8+ T cells, CD45+ cells, cytokine production, DCs and DC subsets in tumors [5]: No differences
- anti-tumor immune responses, MHC class II and I expression on DCs [5]: enhanced
- expression of multiple pro-inflammatory mediators in CD8+ T cells (CD8+ T cells): increased expression
- levels of NOD2, IL-6 and CXCL2 mRNA in intestinal epithelial cells [6]: increased

— patent US20220370553A1, “PREBIOTIC-INDUCED ANTI-TUMOR IMMUNITY” (Sanford Burnham Prebys Medical Discovery Institute, priority 2019, published 2022)
